Test results: US12150927B2, “Use of cannabidiolic acid in the treatment of autism spectrum disorder and associated disorders” (GW Research Limited, priority 2016, dated 2024)

How the values were obtained:
MeCP2 KO mice = assay: Symptom scoring, mouse model of Rett syndrome; assay type: in vivo; conditions: chronic CBDA 2 and 20 mg/kg i.p., FIG. 7-9
Protocol: CBDA was administered daily at the dose of 2 or 20 mg/kg i.p. starting from PND 28 and the following signs were scored every other day: hindlimb clasping (indication of motor imbalance), tremor, gait (measure of coordination), breathing, mobility and general condition.
The CBDA was dissolved in ethanol, cremophor and saline (1:1:18). Starting from PND 28, mice received a daily intraperitoneal injection of CBDA (or vehicle) at the dose of 2 or 20 mg/kg. Animals were then scored every other day to evaluate the effect of CBDA treatment on motor symptoms (hindlimb clasping, gait, mobility) as well as neurological signs and general conditions (breathing abnormalities, tremors and general condition) present in MeCP2 knockout (KO) mice.
Each of the six symptoms was scored from 0 to 2 (0 corresponds to the symptom being absent or the same as in the wild type (WT) animal; 1 when the symptom was present; 2 when the symptom was severe).
Mobility: the mouse is observed when placed on bench, then when handled gently. 0=as WT. 1=reduced movement when compared with WT: extended freezing period when first placed on bench and longer periods spent immobile. 2=no spontaneous movement when placed on the bench; mouse can move in response to a gentle prod or a food pellet placed nearby.
Gait: 0=as WT. […]

VPA rats = assay: Short-term memory, novel object recognition test, rat VPA model; assay type: in vivo, Sprague-Dawley rats; conditions: FIG. 2C
Protocol: Pregnant Sprague-Dawley rats (Charles River, Calco, Italy), received a single intraperitoneal injection of 500 mg/kg sodium valproate on the 12.5 day after conception, and control females were injected with physiological saline at the same time. Sodium valproate (Sigma Aldrich, Milan, IT) was dissolved in saline at a concentration of 250 mg/ml.
CBDA was dissolved in ethanol, cremophor and saline (1:1:18). Symptomatic treatment with CBDA at doses of 2 and 20 mg/kg/day i.p. was performed starting from PND 34 (early adolescence) till 56 (early adulthood), both in male and female offspring of dams injected with VPA 500 mg/kg (or vehicle) on day 12.5 after conception. At PND 56, a series of behavioural tests was performed in order to assess the effect of chronic CBDA on sociability, social novelty, short-term memory, locomotion and stereotyped/repetitive behaviours.
Short-term memory: The experimental apparatus used for the object recognition test was an open-field box (43×43×32 cm) made of Plexiglas, placed in a dimly illuminated room. The experiment was performed and analysed as previously described (Zamberletti et al, 2014). Animals performed each test individually.
Each animal was placed in the arena and allowed to explore two identical previously unseen objects for 5 minutes (familiarization phase). After an inter-trial interval of 3 minutes one of the two familiar objects was replaced by a novel, previously unseen object and rats were returned to the arena for the 5-minute test phase. During the test phase the time spent exploring the familiar object (Ef) and the new object (En) was videotaped and recorded separately by two observers blind to the treatment groups and the discrimination index was calculated as follows: [(En−Ef)/(En+Ef)]×100.

Structure (SMILES): C=C(C)[C@@H]1CCC(C)=C[C@H]1c1c(O)cc(CCCCC)c(C(=O)O)c1O [CBDA, Cannabidiolic acid]
- total symptom score (tremor, breathing, hindlimb clasping, gait, general condition, mobility) (MeCP2 KO mice): partially improve these symptoms and decrease the total symptom score, however these data were not significant
- short-term memory (discrimination index) (VPA rats; CBDA 20 mg/kg/day i.p., female VPA rats): able to reverse the short-term memory deficit
- short-term memory (discrimination index) (VPA rats; CBDA 2 and 20 mg/kg/day i.p., male VPA rats): completely and significantly reversed the short-term memory deficit
- recognition memory per se (VPA rats; CBDA given to vehicle-treated (non VPA) rats): without affecting per se recognition memory
